Measured values: the supplement of paper PMC10307832

Legend:
Test in all cases: relative viability (nuclei count vs DMSO), 5 days (fraction); higher = more cells survive
[1] = compound: Cc1ccc2nc(NCCN)c3ncc(C)n3c2c1 + CS(=O)(=O)CCNCc1ccc(-c2ccc3ncnc(Nc4ccc(OCc5cccc(F)c5)c(Cl)c4)c3c2)o1 [Lapatinib] (partner 2 µM)
How it was run: (§1)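 Five library-drug doses in √10 steps were combined with a fixed anchor-drug dose, or a single drug was given alone, by pin tool to lung cancer cell lines in 1536-well plates the day after seeding. Nuclei were stained and counted after 5 days. Relative viability is the nuclei count in treated wells over that in vehicle wells, taken as the median of duplicate plates.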

[2] = compound: O=C(/C=C/c1ccccc1)NC(NC(=S)Nc1cccc2cccnc12)C(Cl)(Cl)Cl [Salubrinal] + Cc1cc(Nc2cc(N3CCN(C)CC3)nc(Sc3ccc(NC(=O)C4CC4)cc3)n2)n[nH]1 [Tozasertib] (partner 0.1 µM)
How it was run: as §1

[3] = compound: O=C(/C=C/c1ccccc1)NC(NC(=S)Nc1cccc2cccnc12)C(Cl)(Cl)Cl [Salubrinal] + Cc1nc(NC(=O)N2CCC[C@H]2C(N)=O)sc1-c1ccnc(C(C)(C)C(F)(F)F)c1 [Alpelisib] (partner 2 µM)
How it was run: as §1

[4] = compound: O=C(/C=C/c1ccccc1)NC(NC(=S)Nc1cccc2cccnc12)C(Cl)(Cl)Cl [Salubrinal] + O=C(c1cc(Cc2n[nH]c(=O)c3ccccc23)ccc1F)N1CCN(C(=O)C2CC2)CC1 [Olaparib] (partner 8 µM)
How it was run: as §1

Cell Line	relative viability ([1]; first compound 0.04 µM)	relative viability ([1]; first compound 0.4 µM)	relative viability ([1]; first compound 1.265 µM)	relative viability ([1]; first compound 4 µM)	relative viability ([2]; first compound 0.08 µM)	relative viability ([2]; first compound 0.253 µM)	relative viability ([2]; first compound 0.8 µM)	relative viability ([2]; first compound 2.53 µM)	relative viability ([2]; first compound 8 µM)	relative viability ([3]; first compound 0.08 µM)	relative viability ([3]; first compound 0.253 µM)	relative viability ([3]; first compound 0.8 µM)	relative viability ([3]; first compound 2.53 µM)	relative viability ([3]; first compound 8 µM)	relative viability ([4]; first compound 0.08 µM)	relative viability ([4]; first compound 0.8 µM)	relative viability ([4]; first compound 2.53 µM)	relative viability ([4]; first compound 8 µM)	relative viability ([1]; first compound 0.1265 µM)	relative viability ([4]; first compound 0.253 µM)
NCI-H1915	1.01	0.68	0.991	0.947	0.484	0.291	0.337	0.387	0.432	1.06	1.08	1.11	1.06	1.04	0.256	0.257	0.28	0.273	–	–
NCI-H1944	0.772	0.642	0.978	0.758	0.269	0.269	0.276	0.229	0.278	0.912	0.912	0.871	0.871	0.795	0.435	0.461	0.431	0.417	0.805	0.478
NCI-H1975	1.01	0.935	0.95	0.849	0.989	0.621	0.785	0.517	0.186	0.713	0.467	0.766	0.674	0.579	0.926	0.777	0.769	0.613	0.925	0.59
NCI-H1993	0.844	0.695	0.74	0.629	0.653	0.577	0.597	0.674	0.649	0.62	0.595	0.735	0.688	0.676	0.867	0.561	–	1.47	0.887	0.932
NCI-H2009	1.03	0.88	0.928	0.836	0.762	0.733	0.774	0.718	0.637	1.16	1.1	1.19	1.16	1.07	0.758	0.547	0.685	0.656	0.958	0.581
NCI-H2023	0.949	0.651	1.26	0.69	0.323	0.286	0.323	0.236	0.182	0.679	0.586	0.688	0.587	0.488	0.472	0.435	0.373	0.524	0.884	0.428
NCI-H2085	0.91	0.728	0.785	0.817	0.96	0.776	0.854	0.588	0.77	1.09	0.879	0.923	0.936	0.981	0.804	0.765	0.76	0.745	0.771	0.742
NCI-H2087	1.25	1.16	1.08	1.07	0.299	0.212	0.295	0.229	0.195	1.14	0.861	1.05	1.33	1.09	0.476	0.784	0.508	0.584	1.14	0.493
NCI-H2126	0.793	0.765	0.791	0.593	0.979	0.801	0.968	0.827	0.666	0.808	0.767	0.812	0.727	0.725	1.01	0.941	0.88	0.951	0.783	0.754
NCI-H2170	0.307	0.249	0.302	0.26	1.02	0.778	0.783	0.77	0.665	0.883	0.703	0.859	0.811	0.706	0.65	0.668	0.641	0.636	0.263	0.632
NCI-H2228	1.07	0.884	1.15	1.04	0.268	0.304	0.283	0.222	0.197	0.87	0.582	0.792	0.861	0.725	0.691	0.969	0.555	0.385	1.3	–
NCI-H2347	0.99	0.908	0.987	0.87	0.619	0.543	0.617	0.51	0.568	1.11	0.928	1.25	1.06	1.08	0.595	0.609	0.613	0.584	0.99	0.657
NCI-H2405	1.06	1.06	1.08	0.835	0.722	0.748	0.801	0.713	0.696	0.8	0.845	0.711	0.79	0.831	0.951	0.925	0.822	0.928	1.06	0.879
NCI-H3122	1.06	0.997	1.12	1	0.416	0.387	0.591	0.387	0.428	0.832	0.762	0.874	0.795	0.793	0.762	0.566	0.664	0.683	0.994	1.23
PC-3 [JPC-3]	0.475	0.42	0.448	0.424	1.12	0.649	0.857	0.896	0.831	1.08	0.98	1.13	1.07	1.03	1.16	1.23	1.1	1.09	0.45	0.567
PC-14	0.398	0.41	0.289	0.295	0.629	0.663	0.638	0.525	0.601	1.05	0.756	1.14	0.968	0.562	0.278	0.259	0.246	0.25	0.307	0.258
RERF-LC-KJ	0.834	0.911	0.809	0.84	0.584	0.433	0.513	0.435	0.285	0.912	0.824	0.925	0.813	0.698	0.901	0.996	0.753	0.951	0.925	0.838
SK-LU-1	1.06	0.889	0.948	0.852	0.334	0.326	0.344	0.287	0.286	1.1	0.864	1.35	1.07	0.951	0.508	0.476	0.454	0.378	0.951	0.452
SK-MES-1	0.503	0.493	0.447	0.472	1.01	0.816	1.04	0.895	0.694	1.01	0.888	1.09	0.992	0.664	0.769	0.845	0.605	0.598	0.512	0.694
SW 1573	1.07	1.19	1.42	0.954	0.176	0.172	0.155	0.194	0.151	0.802	0.909	0.827	1.04	0.604	0.607	0.542	0.43	0.522	1.1	0.488
